Measurements reported in patent US20240217990A1 (Gilead Sciences, Inc., priority 2021, published 2024).

Columns and labels:
TLR8 = target: T1, TLR8 (Homo sapiens, UniProt Q9NR97); test: TLR8 human PBMC cell-based assay (antagonist, Compound A stimulated cytokine release); details: human PBMCs; TLR8 agonist Compound A 800 nM, 6 hours; cytokines (TNFa and IL 12p40) in supernatant; read-out: TLR-8 EC50
T1 construct: Human peripheral blood mononuclear cells (PBMCs) consist of lymphocytes, monocytes and dendritic cells that express TLR7, TLR8 and TLR9; endogenous in cells; host or cells: cryopreserved human PBMCs from healthy donors
T1 sequence (Q9NR97 27-1041): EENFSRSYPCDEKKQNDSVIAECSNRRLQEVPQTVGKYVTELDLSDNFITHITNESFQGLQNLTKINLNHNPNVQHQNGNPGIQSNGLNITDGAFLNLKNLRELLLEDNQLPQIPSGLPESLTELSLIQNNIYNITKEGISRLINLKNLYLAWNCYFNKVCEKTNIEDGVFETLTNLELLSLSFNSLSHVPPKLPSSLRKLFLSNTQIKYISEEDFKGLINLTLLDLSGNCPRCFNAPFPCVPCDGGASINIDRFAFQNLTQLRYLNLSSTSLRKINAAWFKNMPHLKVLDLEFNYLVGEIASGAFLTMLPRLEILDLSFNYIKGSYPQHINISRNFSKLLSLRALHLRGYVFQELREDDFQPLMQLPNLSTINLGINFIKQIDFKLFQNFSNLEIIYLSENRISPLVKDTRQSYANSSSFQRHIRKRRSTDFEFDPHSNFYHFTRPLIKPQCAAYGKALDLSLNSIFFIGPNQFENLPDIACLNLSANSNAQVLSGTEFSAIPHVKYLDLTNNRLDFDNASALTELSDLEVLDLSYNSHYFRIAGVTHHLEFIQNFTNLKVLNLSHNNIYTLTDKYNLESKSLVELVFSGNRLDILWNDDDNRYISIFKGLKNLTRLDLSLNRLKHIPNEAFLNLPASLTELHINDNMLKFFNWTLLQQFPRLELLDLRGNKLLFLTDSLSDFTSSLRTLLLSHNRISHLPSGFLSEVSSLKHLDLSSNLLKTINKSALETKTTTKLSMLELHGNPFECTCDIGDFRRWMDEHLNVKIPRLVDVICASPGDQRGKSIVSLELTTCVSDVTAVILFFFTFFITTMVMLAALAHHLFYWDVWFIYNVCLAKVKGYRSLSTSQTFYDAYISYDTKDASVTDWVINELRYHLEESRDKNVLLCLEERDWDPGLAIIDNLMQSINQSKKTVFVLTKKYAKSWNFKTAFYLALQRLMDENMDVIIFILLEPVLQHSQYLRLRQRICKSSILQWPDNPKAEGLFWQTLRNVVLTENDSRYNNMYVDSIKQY
Procedure, shortened: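 Cryopreserved donor PBMCs (100,000/well, RPMI + 10% FBS) were preincubated 1 h with antagonist (10-point dose response, quadruplicate), then stimulated with Compound A (800 nM final) for 6 h at 37 °C. TNFa and IL-12p40 in supernatants were measured by electrochemiluminescence; sigmoidal fits gave EC50.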

TLR7 = target: T2, TLR7 (Homo sapiens, UniProt Q9NYK1); test: TLR7 human PBMC cell-based assay (antagonist, GS-986 stimulated cytokine release); details: human PBMCs; TLR7 agonist GS-986 400 nM, 6 hours; cytokines (IL-6 and IFNα) in supernatant; read-out: TLR-7 EC50
T2 construct: Human peripheral blood mononuclear cells (PBMCs) consist of lymphocytes, monocytes and dendritic cells that express TLR7, TLR8 and TLR9; endogenous in cells; host or cells: cryopreserved human PBMCs from healthy donors
T2 sequence (Q9NYK1 27-1049): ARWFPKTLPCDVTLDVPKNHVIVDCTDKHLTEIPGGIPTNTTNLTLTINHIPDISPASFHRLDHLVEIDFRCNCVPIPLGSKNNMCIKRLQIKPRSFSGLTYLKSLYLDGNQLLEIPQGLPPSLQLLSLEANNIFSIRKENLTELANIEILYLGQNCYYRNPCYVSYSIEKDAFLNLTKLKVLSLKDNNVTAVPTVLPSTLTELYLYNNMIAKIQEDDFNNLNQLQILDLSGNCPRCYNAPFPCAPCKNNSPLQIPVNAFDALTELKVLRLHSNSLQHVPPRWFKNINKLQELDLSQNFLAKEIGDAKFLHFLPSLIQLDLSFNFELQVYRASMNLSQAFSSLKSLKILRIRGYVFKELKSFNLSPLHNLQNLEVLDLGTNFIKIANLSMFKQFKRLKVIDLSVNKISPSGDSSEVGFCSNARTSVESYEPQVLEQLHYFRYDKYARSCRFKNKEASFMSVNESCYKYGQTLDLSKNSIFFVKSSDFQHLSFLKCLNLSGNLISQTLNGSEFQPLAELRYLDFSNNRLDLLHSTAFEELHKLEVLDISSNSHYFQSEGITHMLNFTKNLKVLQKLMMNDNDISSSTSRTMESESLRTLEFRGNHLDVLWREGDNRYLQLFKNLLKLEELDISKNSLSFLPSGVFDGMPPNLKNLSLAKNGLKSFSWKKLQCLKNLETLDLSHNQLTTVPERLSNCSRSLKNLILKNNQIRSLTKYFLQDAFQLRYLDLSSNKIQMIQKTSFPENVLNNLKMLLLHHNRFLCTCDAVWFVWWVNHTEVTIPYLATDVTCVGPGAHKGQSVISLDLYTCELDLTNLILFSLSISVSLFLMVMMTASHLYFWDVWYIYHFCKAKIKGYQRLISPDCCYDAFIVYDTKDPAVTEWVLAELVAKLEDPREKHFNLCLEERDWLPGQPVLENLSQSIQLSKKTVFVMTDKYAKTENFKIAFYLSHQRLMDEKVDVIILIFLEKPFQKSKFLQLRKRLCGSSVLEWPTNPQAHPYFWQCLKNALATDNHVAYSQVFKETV
Procedure, shortened: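 EC50 derived by sigmoidal fitting of IL-6 and IFNα levels, quantified by electrochemiluminescence in supernatants of human PBMCs given 400 nM GS-986 for 6 h. Cells (100,000/well in RPMI-1640, 10% FBS) had received test antagonist 1 h beforehand, 10 doses in quadruplicate, at 37 °C.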

Compound | EC50 (TLR8) [nM] | EC50 (TLR7) [nM]
CCc1c(-c2cc(C)c3ncnn3c2)[nH]c2cc(-c3nc4ccc(N5CCNCC5)nc4[nH]3)sc12 [Example 244, 6-ethyl-5-(8-methyl-[1,2,4]triazolo[1,5-a]pyridin-6-yl)-2-(5-(piperazin-1-yl)-311-imidazo[4,5-b]pyridin-2-yl)-4H-thieno[3,2-b]pyrrole] | 33.1 | 333
Cc1c(C(=O)N2CCC[C@H](N)[C@@H]2C)sc2c(C(C)C)c(-c3cc(C)c4ncnn4c3)[nH]c12 [Example 242] | 219 | 15.4
Cc1cc(-c2[nH]c3cc(C(=O)N4CCC[C@H]4CN)sc3c2C(C)C)cn2ncnc12 [Example 145] | 46.3 | 3.8
Cc1cc(-c2[nH]c3cc(C4=NC5(CCN(CC(N)=O)CC5)CO4)sc3c2C(C)C)cn2ncnc12 [Example 165] | 116 | 1.7
Cc1cc(-c2[nH]c3cc(-c4nnc(C5CCC(N)CC5)o4)sc3c2C(C)C)cc(C)n1 (stereo not drawn) [Example 71] | 23.6 | 22.3
Cc1cc(-c2[nH]c3cc(C4CCN(CC(N)=O)CC4(C)C)sc3c2C(C)C)cn2ncnc12 (stereo not drawn) [Example 298] | 17.7 | 4.02
Cc1cc(-c2[nH]c3cc([C@@H]4C[C@H]5CC[C@@H](C4)N5)sc3c2C(C)C)cn2ncnc12 [Example 307, 2-((1R,3s,5S)-8-azabicyclo[3.2.1]octan-3-yl)-6-isopropyl-5-(8-methyl-[1,2,4]triazolo[1,5-a]pyridin-6-yl)-4H-thieno[3,2-b]pyrrole] | 7.49 | 0.09
Cc1cc(-c2[nH]c3cc(-c4ccc(N5CCNCC5)nc4)sc3c2C(C)C)cc(C)n1 [Example 51, 5-(2,6-dimethyl-4-pyridyl)-6-isopropyl-2-(6-piperazin-1-yl-3-pyridyl)-4F1-thieno[3,2-b]pyrrole] | 61.4 | 20.9
Cc1cc(-c2[nH]c3cc(C(=O)N(C)[C@H]4CCCNC4)sc3c2C(C)C)cc(C)n1 [Example 29] | 92 | 60
Cc1cc(-c2[nH]c3cc(C(=O)N4CCN(CCO)CC4)sc3c2C(C)C)cc(C)n1 [Example 45] | 31.7 | 355
Cc1cc(-c2[nH]c3cc(C4CCC5(CC4)CN(C(=O)[C@H]4CCCN4C)C5)sc3c2C(C)C)cn2ncnc12 [Example 207] | 19.9 | 0.7
Cc1cc(-c2[nH]c3cc(-c4ccc5nc(C6[C@H]7CC[C@H](C7)N6CC(N)=O)[nH]c5c4)sc3c2C(C)C)cn2ncnc12 (stereo partly drawn) [Example 170] | 10.5 | 1.2
Cc1cc(-c2[nH]c3cc(-c4nc5ccc(N6CCNCC6)cc5n4C)sc3c2C(C)C)cn2ncnc12 [Example 238] | 14.2 | 2.8
Cc1cc(-c2[nH]c3cc(C(=O)N4CCNC[C@H]4C)sc3c2C(C)C)cn2ncnc12 [Example 148] | 11 | 4.8
CCc1c(-c2cc(C)c3ncnn3c2)[nH]c2cc(-c3nc4ccc(N5CCN(CC(N)=O)CC5)cc4[nH]3)sc12 [Example 169] | 72 | 146
Cc1cc(-c2[nH]c3cc(C(=O)N(C)C4CCNCC4(C)C)sc3c2C(C)C)cn2ncnc12 (stereo not drawn) [Example 92] | 23.1 | 0.2
Cc1cc(-c2[nH]c3cc(C(=O)N4CCC[C@H]4CN4CCCC4)sc3c2C(C)C)cn2ncnc12 [Example 97] | 32.6 | 12.9
Cc1cc(-c2[nH]c3cc(C(=O)N(C)C4CCC(N5CC(OC(F)(F)F)C5)CC4)sc3c2C(C)C)cn2ncnc12 (stereo not drawn) [Example 251] | 105 | 59.6
Cc1cc(-c2[nH]c3cc(CN4CCN(C)CC4)sc3c2C(C)C)cn2ncnc12 [Example 265, 6-isopropyl-5-(8-methyl-[1,2,4]triazolo[1,5-a]pyridin-6-yl)-2-((4-methylpiperazin-1-yl)methyl)-4H-thieno[3,2-b]pyrrole] | 8.2 | 1.7

Now those with a lower EC50 (TLR8), led by results:

EC50 (TLR8) [nM] | EC50 (TLR7) [nM] | Compound
2.6 | 0.9 | Cc1cc(-c2[nH]c3cc(C(=O)N4CCN[C@@H](CO)C4)sc3c2C(C)C)cn2ncnc12 [Example 122]
0.6 | 1.6 | Cc1cc(-c2[nH]c3cc(C4CCN(CCO)CC4)sc3c2C(C)C)cn2ncnc12 [Example 187, 2-(4-(6-isopropyl-5-(8-methyl-[1,2,4]triazolo[1,5-a]pyridin-6-yl)-4H-thieno[3,2-b]pyrrol-2-yl)piperidin-1-yl)ethan-1-ol]
2.2 | 18.1 | Cc1cc(-c2[nH]c3cc(C(=O)N4CCN[C@H](c5ccccc5)C4)sc3c2C(C)C)cn2ncnc12 [Example 129]
1.3 | 1.1 | Cc1c(-c2[nH]c3cc(-c4cnn(C5CCNCC5)c4)sc3c2C(C)C)cn2ncnc2c1C [Example 229]
0.5 | 1.5 | Cc1cc(-c2[nH]c3cc(C(=O)N4C[C@@H](C)N[C@H](C)C4)sc3c2C(C)C)cn2ncnc12 [Example 127]
3.1 | 0.4 | Cc1cc(N2CCNCC2)ncc1-c1cc2[nH]c(-c3cc(C)c4ncnn4c3)c(C(C)C)c2s1 [Example 216]
1.36 | 0.18 | Cc1cc(-c2[nH]c3cc(C4CCC5(C4)CN(CC(N)=O)C5)sc3c2C(C)C)cn2ncnc12 (single isomer, unassigned) [Example 310, 2-(6-(6-Isopropyl-5-(8-methyl-[1,2,4]triazolo[1,5-a]pyridin-6-yl)-4H-thieno[3,2-b]pyrrol-2-yl)-2-azaspiro[3.4]octan-2-yl)acetamide]
1.2 | 2.3 | Cc1c(-c2[nH]c3cc(CN4CCC(C)(O)CC4)sc3c2C(C)C)cn2ncnc2c1C [Example 266]
1.7 | 15.4 | Cc1cc(-c2[nH]c3cc(-c4ccc5c(c4)CNC5)sc3c2C(C)C)cn2ncnc12 [Example 209, 2-(isoindolin-5-yl)-6-isopropyl-5-(8-methyl-[1,2,4]triazolo[1,5-a]pyridin-6-yl)-4H-thieno[3,2-b]pyrrole]
2.5 | 1 | Cc1c(-c2[nH]c3cc(C(=O)N(C)C4CCNCC4)sc3c2C(C)C)cn2ncnc2c1C [Example 150]
5.6 | 0.4 | Cc1cc(-c2[nH]c3cc(C4CCN(C(=O)C5CCCN(C)C5)CC4)sc3c2C(C)C)cn2ncnc12 (stereo not drawn) [Example 203]
